{"source": "patent US7157555B1", "about": "“Exendin agonist compounds” (Amylin Pharmaceuticals, Inc., priority 1997, dated 2007)", "tested_on": "gastric emptying in rats", "experiment": "Gastric emptying in rats (phenol red gel gavage)", "format": "in vivo, Male Harlan Sprague Dawley (HSD) rats", "procedure": "This experiment followed a modification of the method of Scarpignato, et al., Arch.\nMale Harlan Sprague Dawley (HSD) rats were used.\nThe determination of gastric emptying by the method described below was performed after a fast of −20 hours to ensure that the stomach contained no chyme that would interfere with spectrophotometric absorbance measurements.\nTwenty minutes after gavage, rats were anesthetized using 5% halothane, the stomach exposed and clamped at the pyloric and lower esophageal sphincters using artery forceps, removed and opened into an alkaline solution which was made up to a fixed volume. Stomach content was derived from the intensity of the phenol red in the alkaline solution, measured by absorbance at a wavelength of 560 nm. In separate experiments on 7 rats, the stomach and small intestine were both excised and opened into an alkaline solution. […] To account for a maximal dye recovery of less than 100%, percent of stomach contents remaining after 20 min were expressed as a fraction of the gastric contents recovered from control rats sacrificed immediately after gavage in the same experiment. Percent gastric contents remaining=(absorbance at 20 min)/(absorbance at 0 mm)×100.\nIn baseline studies, with no drug treatment, gastric emptying over 20 min was determined.", "data": [{"substance": "exendin-4 acid: exendin agonist; synthesized according to standard peptide synthesis methods", "values": [{"measurement": "EC50 (inhibition of gastric emptying)", "setting": "conscious rats, gastric contents remaining 20 min after gavage, dose-response", "result": 0.12, "unit": "µg"}, {"measurement": "Inhibition of gastric emptying (in words)", "setting": "rats, FIG. 6 and Table II", "result": "potent inhibitors of gastric emptying"}]}]}
